# Measured values published in patent US20160207950A1, “ORGA[…]-2-CYANO-1-HYDROXYPROPAN-2-YL FOR USE AS ANTHELMINTICS” (UNIVERSITÄT ZÜRICH, priority 2013, published 2016).
# Where two headings read alike, the source gives them in different places.
# What was measured:
# [1] = test system: human cervical cancer HeLa; assay: fluorometric cell viability assay (Resazurin), toxicity towards HeLa; assay type: cell-based; details: 2 days treatment
# Protocol: Cell Culture: Human cervical carcinoma cells (HeLa) were cultured in DMEM (Gibco) supplemented with 5% fetal calf serum (FCS, Gibco), 100 U/ml penicillin, 100 μg ml streptomycin at 37° C. and 5% CO2. The normal human fetal lung fibroblast MRC-5 cell line was maintained in F-10 medium (Gibco) supplemented with 10% FCS (Gibco), 200 mmol/l L-Glutamine, 100 U/ml penicillin, and 100 μg/ml streptomycin at 37° C. and 5% CO2. Toestablish the anticancer potential of the compounds they were tested in one cell line, namely HeLa by a fluorometric cell viability assay using Resazurin (Promocell GmbH). Compounds showing cytotoxicity were then tested on normal MRC-5 cells. 1 day before treatment, cells were plated in triplicates in 96-well plates at a density of 4×10^3 cells/well in 100 μl for HeLa and 7×10^3 cells/well for MRC-5 cells. Cells were treated with increasing concentrations of the compounds for 2 days. After 2 days, medium and drug were removed and […] fresh medium containing Resazurin (0.2 mg/ml final concentration) were added. After 4 h of incubation at 37° C., the highly red fluorescent dye resorufin's fluorescence was quantified at 590 nm emission with 540 nm excitation wavelength in the SpectraMax M5 microplate Reader. […]
# C. elegans = C. elegans movement inhibition assay
# Protocol: C. elegans movement inhibition assay: Asynchronous N2 C. elegans worms (Bristol) were maintained on nematode growth medium (NGM) agar, seeded with a lawn on OP50 E coli as a food-source, according to standard protocol (Maintenance of C. elegans; Stiernagle, T., Ed.; WormBook, 2006.). Worms were harvested from NGM plates by washing with M9 buffer (42 mmol/l Na2HPO4, 22 mmol/l KH2PO4, 86 mmol/l NaCl and 1 mmol/l MgSO4), aspiration and collection in a 10 mL tube (Falcon). The average number of worms in 5 μL of this suspension was calculated by transferring 4×5 μL aliquots to a glass slide (Menzel Glaser), and worms were enumerated under a compound microscope (Olympus CH30). To adjust the suspension to contain 1 worm per μL, M9 buffer was either added or removed after pelleting worms at 600× g for 30 sec.
# Dilution of test compounds, Zolvix (monepantel) and DMSO for working stock solutions and 96 well plate set-up for liquid screen: A volume of 70 μL of M9 buffer was added to each well in a 96-well plate, using a multichannel pipettor. A volume of 20 μL of worm suspension was added to each well using a single-channel pipettor, with a trimmed pipette tip (increased aperture to minimize damage to worms). […]
# Quantitative worm mobility scoring: Immobile worms were counted as a percentage of total worms in each well using an Olympus SZ30 dissecting microscope. […]
# Haemonchus Contortus = assay: Activity in vitro against Haemonchus contortus (egg hatch / larval development)
# Protocol: (§1) Activity in Vitro against Haemonchus contortus & Trichostrongylus colubriformis (Gastrointestinal nematodes).
# (§2) Freshly harvested and cleaned nematode eggs are used to seed a suitably formatted microplate containing the test substances to be evaluated for antiparasitic activity. Each compound is tested by serial dilution in order to determine its MED. The test compounds are diluted in nutritive medium allowing the full development of eggs through to 3rd instar larvae. The plates are incubated for 6 days at 28° C. and 60% relative humidity (RH). Egg-hatching and ensuing larval development are recorded to identify a possible nematocidal activity. Efficacy is expressed in percent reduced egg hatch, reduced development of L3, or paralysis & death of larvae of all stages.
# [2] = test system: Trychostrongylus colubriformis; assay: Activity in vitro against Trichostrongylus colubriformis (egg hatch / larval development)
# Protocol: as §1, §2
substance,measurement,setting,value
N-(2-cyano-1-(5-cyano-2-(trifluoromethyl)phenoxy)propan-2-yl)ferroceneamide [Compound 1],IC50,[1],93.2 µM
same,mobility of the C. elegans worms (in words),C. elegans; 50 μM,significantly reduced
same,Mobility in C. elegans at 50 μM,C. elegans; 24 h incubation,2%
same,Number of L3 H. contortus/100 μM,H. contortus,>100
same,Activity against Haemonchus Contortus at 10 [mg/mL],Haemonchus Contortus; listed as compound 1,up to 69%
same,Activity against Haemonchus Contortus at 10 [mg/mL],Haemonchus Contortus; listed as drawing 26,69%
same,Activity against Trychostrongylus colubriformis at 10 [mg/mL],[2]; listed as compound 1,up to 69%
same,Activity against Trychostrongylus colubriformis at 10 [mg/mL],[2]; listed as drawing 26,68%
N-(2-cyano-1-(5-cyano-2-(trifluoromethyl)phenoxy)propan-2-yl)ruthenoceneamide [Compound 1a],IC50,[1],> 100 µM
same,Activity against Haemonchus Contortus at 10 [mg/mL],Haemonchus Contortus,0%
same,efficacy against dirofilaria immitis (in words),Dirofilaria immitis,moderate efficacy
same,Activity against Dirofilaria immitis at 10 [mg/mL],Dirofilaria immitis; 10 mg/mL,30%
same,Activity against Trychostrongylus colubriformis at 10 [mg/mL],[2],0%
